The nature of the data set: Partition coefficient (logD) (aqueous phase 0.1 N HCl). The class given is physicochemical.
[1] abbreviates: 0.1 N HCl (aqueous phase), read-out: logD.

As usually defined, the logD is the decadic logarithm of the distribution of all forms, ionised or not, between an organic phase and buffer at a given pH. Consider `COc1ccc(Cc2cnc(N)nc2N)cc1`, for which, under setting [1], the logD turned out to be 1.34. `Nc1ccc(Cc2cnc(N)nc2N)cc1`: under setting [1], the logD came to 0.26. The same measure, in the same setting: the result for `COc1cc(Cc2cnc(N)nc2N)cc(OC)c1` reads 1.6; that for `COCCOc1cccc(Cc2cnc(N)nc2N)c1`, -1.33. For `COCCOc1ccc(Cc2cnc(N)nc2N)cc1OCCOC`, the logD (octanol/water) was -1.89. As to `Nc1ncc(Cc2ccc3c(c2)OCO3)c(N)n1`, the logD under setting [1] was found to be 1.52. On to `CCCCCCCCOc1cc(Cc2cnc(N)nc2N)ccc1OC`, for which the logD under setting [1] was determined as 2.55.

`CCc1cc(Cc2cnc(N)nc2N)cc(CC)c1CC`: the logD under setting [1] was determined as 1.55. The same measure, in the same setting: the same measure for `C=C(C)c1c(OC)cc(Cc2cnc(N)nc2N)cc1OC`: 3.07; for `CCOc1cc(Cc2cnc(N)nc2N)cc(OCC)c1`: 2.52.

With `COc1cc(Cc2cnc(N)nc2N)cc(OC)c1N(C)C` [ADITOPRIM], the logD under setting [1] worked out at 1.51. For the compound `COc1cc(Cc2cnc(N)nc2N)cc(OC)c1Br` [BRODIMOPRIM], under setting [1], the logD was 2.04. Still for that read-out and setting: the same measure for `COc1ccc(Cc2cnc(N)nc2N)cc1OC` [DIAVERIDINE]: 1; for `COc1cc(Cc2cnc(N)nc2N)cc(OC)c1SC` [METIOPRIM]: 1.6. For the compound `COCCOc1c(OC)cc(Cc2cnc(N)nc2N)cc1OC` [TETROXOPRIM], the logD under setting [1] was -1.81.

The record behind these values is ChEMBL document CHEMBL1123483, “Inhibition of chicken liver dihydrofolate reductase by 5-(substituted benzyl)-2,4-diaminopyrimidines. A quantitative structure-activity relationship and graphics analysis” (J Med Chem, 1986).
